Laboratory results: patent US20030144352A1, “Antimuscarinic aerosol” (priority 2001, published 2003)

Tests used:
[1] = human serum; Nilvebrant et al., Life Sciences 60 (1997); cited from earlier work
[2] = Plasma concentration of tolterodine after aerosol administration (inhalation) in mice; format: in vivo
Procedure: Female BALB/C mice, weight range 19-22 g, were obtained from Charles River Laboratories (Kingston, N.C.). They received food and water ad libitum. All procedures in these studies were in compliance with the Animal Welfare Act Regulation, 9CFR Parts 1 and 2, Publication (NIH) 85-23, 1985.
This nebulizer generates a mean aerosol particle size of 1.3 microns at a rate of approximately 0.25 ml/minute.
Blood samples were taken via cardiac puncture under isoflurane anesthesia at 5, 15, 30, 60, 120, and 240 minutes after in treatment and at 2.5, 5, 15, 30, 60, and 120 minutes after aerosol drug treatment.
The samples were collected in tubes containing EDTA and centrifuged at 12000×g for four minutes. Plasma was removed and stored at −70° C. until assay.
Plasma samples were extracted via a liquid/liquid extraction technique. […] Chromatographically, the analyte and internal standard were resolved on a Zorbax ACE Phenyl column (2.1×50mm) using a gradient elution. The total analysis time was 4 minutes with a limit of quantization of 100 pg/mL.
Female BALB/c mice, weight range 19-22 g, were obtained from Charles River Laboratories (Kingston, N.C.). They received food and water ad libitum. All procedures in these studies were in compliance with the Animal Welfare Act Regulation, 9CFR Parts 1 and 2, Publication (NIH) 85-23, 1985.
The duration of aerosol treatment was five minutes. Blood samples were collected via cardiac puncture at 2.5, 5, 15, 30, 60, and 120 minutes following the end of the drug nebulization period.
The samples from were collected in tubes containing EDTA and centrifuged at 12000×g for four minutes. Plasma was removed and stored at −70° C. until assay.

SMILES | Fraction unbound [1] | Plasma levels ([2]; female BALB/c mice, inhalation of nebulized 0.1 mg/mL solution for five minutes, 2.5-120 minutes after nebulization) | Rise in tolterodine plasma concentration ([2]; mice, aerosol administration (FIGS. 1 and 2)) | Absorption into the circulation ([2]; mice, inhalation of nebulized solutions at 0.1, 0.5 or 1.0 mg/mL)
CC(C)N(CC[C@H](c1ccccc1)c1cc(CO)ccc1O)C(C)C [5-HM, 2-[(1R)-3-(diisopropylamino)-1-phenylpropyl]-4-(hydroxymethyl)phenol] | 36% |  |  | 
Cc1ccc(O)c([C@H](CCN(C(C)C)C(C)C)c2ccccc2)c1.O=C(O)C(O)C(O)C(=O)O [tolterodine L-tartrate, (R)-N,N-diisopropyl-3-(2-hydroxy-5-methylphenyl)-3-phenylpropanamine L-tartrate] |  | at or below-detection limits |  | 
Cc1ccc(O)c([C@H](CCN(C(C)C)C(C)C)c2ccccc2)c1 [tolterodine, 2-[(1R)-3-(diisopropylamino)-1-phenylpropyl]-4-methylphenol] | 3.7% |  | within a few minutes a distinct and instant rise | rapidly absorbed into the circulation
